The record followed here is PubChem BioAssay AID330 (DTP/NCI, 2004).

The assay relates to P388 leukemia ip, CD2F1 mice, survival T/C. In words: NCI In Vivo Anticancer Drug Screen. Data for tumor model P388 Leukemia (intraperitoneal) in CD2F1 (CDF1) mice. The settings on record: endpoint: median survival time, higher = longer survival. The method, boiled down:
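Mice carrying the transplanted tumor received test compound or vehicle. Survival was recorded in each group, and the value is the treated-group measurement divided by that of the vehicle-treated control group.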

Setting [1] is: dose: 60.0 mg/kg/injection, schedule: Q01DX005 (ip), vehicle: Klucel (hydroxypropylcellulose) (HPC).
Where [2] appears, read: dose: 120.0 mg/kg/injection, schedule: Q01DX005 (ip), vehicle: Klucel (hydroxypropylcellulose) (HPC).
Setting [3] is: dose: 240.0 mg/kg/injection, schedule: Q01DX005 (ip), vehicle: Klucel (hydroxypropylcellulose) (HPC).
The mark [4] stands for this setting: dose: 6.25 mg/kg/injection, schedule: Q01DX009 (ip), vehicle: saline with Tween-80.
Where [5] appears, read: dose: 12.5 mg/kg/injection, schedule: Q01DX009 (ip), vehicle: saline with Tween-80.
[6] abbreviates: dose: 25.0 mg/kg/injection, schedule: Q01DX009 (ip), vehicle: saline with Tween-80.
The mark [7] stands for this setting: dose: 50.0 mg/kg/injection, schedule: Q01DX009 (ip), vehicle: saline with Tween-80.
[8] abbreviates: dose: 100.0 mg/kg/injection, schedule: Q01DX009 (ip), vehicle: saline with Tween-80.
Setting [9] is: dose: 200.0 mg/kg/injection, schedule: Q01DX009 (ip), vehicle: saline with Tween-80.
Setting [10] is: dose: 50.0 mg/kg/injection, schedule: Q01DX005 (ip), vehicle: saline with Tween-80.
The mark [11] stands for this setting: dose: 100.0 mg/kg/injection, schedule: Q01DX005 (ip), vehicle: saline with Tween-80.
[12] abbreviates: dose: 50.0 mg/kg/injection, schedule: Q01DX005 (ip), vehicle: Klucel (hydroxypropylcellulose) (HPC).
[13] abbreviates: dose: 100.0 mg/kg/injection, schedule: Q01DX005 (ip), vehicle: Klucel (hydroxypropylcellulose) (HPC).
The mark [14] stands for this setting: dose: 200.0 mg/kg/injection, schedule: Q01DX005 (ip), vehicle: Klucel (hydroxypropylcellulose) (HPC).
[15] abbreviates: dose: 200.0 mg/kg/injection, schedule: Q01DX005 (ip), vehicle: saline with Tween-80.
Where [16] appears, read: dose: 50.0 mg/kg/injection, schedule: Q01DX009 (ip), vehicle: Klucel (hydroxypropylcellulose) (HPC).
The mark [17] stands for this setting: dose: 100.0 mg/kg/injection, schedule: Q01DX009 (ip), vehicle: Klucel (hydroxypropylcellulose) (HPC).
Where [18] appears, read: dose: 200.0 mg/kg/injection, schedule: Q01DX009 (ip), vehicle: Klucel (hydroxypropylcellulose) (HPC).

The structures appear in SMILES notation. Values joined by “and” are separate entries in the source; they are usually repeats but may differ in a detail not shown here. Identical values can stand only once. Toxic doses and inconclusive results are not listed.

For the compound `Oc1cc2c(cc1C(c1ccc(F)cc1)N1CCCC1)OCO2` (stereo not given), the T/C is, setting by setting: under setting [1], 109 % of control; under setting [2], 111 % of control; under setting [3], 111 % of control.
As to `COCc1cccc2ccnc(COC)c12`, the T/C runs as follows: (dose: 100.0 mg/kg/injection, schedule: Q01DX001 (ip), vehicle: saline) 100 % of control; (dose: 200.0 mg/kg/injection, schedule: Q01DX001 (ip), vehicle: saline) 102 % of control; (dose: 400.0 mg/kg/injection, schedule: Q01DX001 (ip), vehicle: saline) 103 % of control.
On to `O=C1CC(c2ccc(Cl)cc2Cl)Oc2ccc(Cl)cc21` (stereo not given), for which the T/C is 95 % of control under setting [4]; 96 % of control under setting [5]; 95 % of control under setting [6]; 89 % of control under setting [7]; 87 % of control and 90 % of control under setting [8]; 90 % of control under setting [9]. Besides, the T/C (dose: 400.0 mg/kg/injection, schedule: Q01DX009 (ip), vehicle: saline with Tween-80) was 96 % of control.
As to `O=C(Cc1ccccc1)C(Br)C(Br)c1ccccc1` (stereo not given), the T/C under setting [4] was 100 % of control, the T/C under setting [5] was 118 % of control and the T/C under setting [6] was 113 % of control.
Take `Cc1ccc(C(=O)NC2c3ccccc3Oc3ccccc32)cc1`: the T/C runs as follows: under setting [10], 90 % of control; under setting [11], 86 % of control.
Consider `C1CCC2(CC1)OCCCO2`, for which the T/C by setting is: (dose: 100.0 mg/kg/injection, schedule: Q01DX001 (ip), vehicle: Klucel (hydroxypropylcellulose) (HPC)) 94 % of control; (dose: 200.0 mg/kg/injection, schedule: Q01DX001 (ip), vehicle: Klucel (hydroxypropylcellulose) (HPC)) 99 % of control; (dose: 400.0 mg/kg/injection, schedule: Q01DX001 (ip), vehicle: Klucel (hydroxypropylcellulose) (HPC)) 107 % of control.
Turning to `CC[C@H]1C[C@H]2CN(CCc3c([nH]c4ccccc34)[C@@](C(=O)OC)(c3cc4c(cc3OC)N(C=O)[C@H]3[C@@](O)(C(=O)OC)[C@H](OC(C)=O)[C@]5(CC)CCCN6CC[C@]43[C@@H]65)C2)C1`, the T/C is, setting by setting: (dose: 0.5 mg/kg/injection, schedule: Q01DX001 (ip), vehicle: water) 109 % of control; (dose: 1.0 mg/kg/injection, schedule: Q01DX001 (ip), vehicle: water) 107 % of control; (dose: 8.0 mg/kg/injection, schedule: Q01DX001 (ip), vehicle: water) 119 % of control.
Consider `Cn1c(-c2ccccc2)nc2ccccc2c1=O`, for which the T/C was 95 % of control under setting [4], 101 % of control under setting [5] and 101 % of control under setting [6].
As to `Cc1cc(C(C)CC(=O)O)c(C)c(C)c1C` (stereo not given), the T/C was 96 % of control under setting [7], 93 % of control under setting [8] and 108 % of control under setting [9].
Consider `CCCNC(=O)CCC(NS(=O)(=O)c1ccc(NC(C)=O)cc1)C(=O)O` (stereo not given), for which the T/C is 100 % of control under setting [12], 98 % of control under setting [13] and 100 % of control under setting [14].
As for `COc1ccc(CC2(OC(C)=O)N=NC(C)(C)O2)cc1` (stereo not given), the T/C under setting [12] was 103 % of control, the T/C under setting [13] is 98 % of control and the T/C under setting [14] is 98 % of control.
Take `COc1ccc(C(c2cc3c(cc2O)OCO3)N2CCOCC2)c(OC)c1` (stereo not given): the T/C is 101 % of control under setting [1], 99 % of control under setting [2] and 110 % of control under setting [3].
For the compound `CN(C)CCNc1ccc(CO)c2sc3ccc(O)cc3c(=O)c12`, the T/C was 160 % of control and 162 % of control (dose: 25.0 mg/kg/injection, schedule: Q01DX005 (ip), vehicle: saline with Tween-80); 173 % of control and 175 % of control under setting [10]; 190 % of control and 194 % of control under setting [11]; 222 % of control under setting [15].
As for `CCOC(=O)CC(=O)c1ccc(C)cc1`, the T/C is, setting by setting: (dose: 100.0 mg/kg/injection, schedule: Q04DX003 (ip), vehicle: saline with Tween-80) 100 % of control; (dose: 200.0 mg/kg/injection, schedule: Q04DX003 (ip), vehicle: saline with Tween-80) 104 % of control; (dose: 400.0 mg/kg/injection, schedule: Q04DX003 (ip), vehicle: saline with Tween-80) 109 % of control.
Take `CC1(C)CCC2(C(=O)OC3OC(CO)C(O)C(O)C3O)CCC3(C)C(=CCC4C5(C)CCC(OC6OC(CO)C(O)C(O)C6O)C(C)(C)C5CCC43C)C2C1` (stereo not given): the T/C (dose: 3.12 mg/kg/injection, schedule: Q01DX005 (ip), vehicle: Klucel (hydroxypropylcellulose) (HPC)) was 98 % of control; the T/C (dose: 6.25 mg/kg/injection, schedule: Q01DX005 (ip), vehicle: Klucel (hydroxypropylcellulose) (HPC)) is 104 % of control; the T/C (dose: 12.5 mg/kg/injection, schedule: Q01DX005 (ip), vehicle: Klucel (hydroxypropylcellulose) (HPC)) is 104 % of control; the T/C (dose: 25.0 mg/kg/injection, schedule: Q01DX005 (ip), vehicle: Klucel (hydroxypropylcellulose) (HPC)) was 95 % of control; the T/C under setting [12] is 102 % of control.
In the case of `CS(=O)(=O)OCCN(CCOS(C)(=O)=O)c1ccc(C(=O)O)cc1`, the T/C reads like this: under setting [6], 159 % of control; under setting [7], 168 % of control and 190 % of control; under setting [8], 175 % of control; (dose: 132.0 mg/kg/injection, schedule: Q04DX003 (ip), vehicle: saline with Tween-80) 159 % of control.
`COC1/C=C\OC2(C)Oc3c(C)c(O)c4c(O)c(c5c(c4c3C2=O)NC2(CCN(C)CC2)N=5)=NC(=O)/C(C)=C\C=C\C(C)C(O)C(C)C(O)C(C)C(OC(C)=O)C1C` (stereo not given): the T/C by setting is: (dose: 25.0 mg/kg/injection, schedule: Q01DX009 (ip), vehicle: Klucel (hydroxypropylcellulose) (HPC)) 100 % of control; under setting [16], 100 % of control; under setting [17], 102 % of control; under setting [18], 94 % of control.
As for `O=C(O)C(Cc1ccc(F)cc1)NC(=O)C(F)(F)F` (stereo not given), the T/C under setting [7] is 95 % of control, the T/C under setting [8] was 95 % of control and the T/C under setting [9] is 100 % of control.
For the compound `CC1CC(O)C(CN(C)C)C(C)(C)C1` (stereo not given), the T/C under setting [10] was 106 % of control and the T/C under setting [11] was 100 % of control.
With `CC(C)(C)[Si](C)(C)ONC(=O)c1ccccc1`, the T/C by setting is: (dose: 6.25 mg/kg/injection, schedule: Q01DX009 (ip), vehicle: distilled water + Tween-80) 100 % of control; (dose: 12.5 mg/kg/injection, schedule: Q01DX009 (ip), vehicle: distilled water + Tween-80) 98 % of control; (dose: 25.0 mg/kg/injection, schedule: Q01DX009 (ip), vehicle: distilled water + Tween-80) 107 % of control; (dose: 50.0 mg/kg/injection, schedule: Q01DX009 (ip), vehicle: distilled water + Tween-80) 91 % of control; (dose: 100.0 mg/kg/injection, schedule: Q01DX009 (ip), vehicle: distilled water + Tween-80) 100 % of control; (dose: 200.0 mg/kg/injection, schedule: Q01DX009 (ip), vehicle: distilled water + Tween-80) 98 % of control. For the same compound, the T/C (dose: 400.0 mg/kg/injection, schedule: Q01DX009 (ip), vehicle: distilled water + Tween-80) was 100 % of control.
Regarding `CC(Oc1cc(Cl)c(Cl)cc1Cl)C(=O)NC(C(=O)O)C(C)C` (stereo not given), the T/C is, setting by setting: under setting [10], 97 % of control and 100 % of control; under setting [11], 91 % of control and 106 % of control; under setting [15], 97 % of control and 111 % of control.
As to `O=[N+]([O-])c1ccc(S(=O)(=O)NCCSSCCNS(=O)(=O)c2ccc([N+](=O)[O-])cc2)cc1`, the T/C runs as follows: under setting [16], 90 % of control; under setting [17], 93 % of control; under setting [18], 90 % of control.
As for `CC(C)(C)c1cc(-c2c3nc(c(-c4cc(C(C)(C)C)c(O)c(C(C)(C)C)c4)c4ccc([nH]4)c(-c4cc(C(C)(C)C)c(O)c(C(C)(C)C)c4)c4nc(c(-c5cc(C(C)(C)C)c(O)c(C(C)(C)C)c5)c5ccc2[nH]5)C=C4)C=C3)cc(C(C)(C)C)c1O`, the T/C by setting is: (dose: 60.0 mg/kg/injection, schedule: Q01DX005 (ip), vehicle: saline with Tween-80) 90 % of control; (dose: 120.0 mg/kg/injection, schedule: Q01DX005 (ip), vehicle: saline with Tween-80) 88 % of control; (dose: 240.0 mg/kg/injection, schedule: Q01DX005 (ip), vehicle: saline with Tween-80) 88 % of control.
